Consider four molecules from ChEMBL document CHEMBL1142021, “Aglycon specificity profiling of alpha-glucosidases using synthetic probes” (Bioorg Med Chem Lett, 2005).

Experiment [1] has as its target T1, Cytosolic beta-glucosidase (Homo sapiens) (UniProt Q9H227).
T1 sequence (whole entry): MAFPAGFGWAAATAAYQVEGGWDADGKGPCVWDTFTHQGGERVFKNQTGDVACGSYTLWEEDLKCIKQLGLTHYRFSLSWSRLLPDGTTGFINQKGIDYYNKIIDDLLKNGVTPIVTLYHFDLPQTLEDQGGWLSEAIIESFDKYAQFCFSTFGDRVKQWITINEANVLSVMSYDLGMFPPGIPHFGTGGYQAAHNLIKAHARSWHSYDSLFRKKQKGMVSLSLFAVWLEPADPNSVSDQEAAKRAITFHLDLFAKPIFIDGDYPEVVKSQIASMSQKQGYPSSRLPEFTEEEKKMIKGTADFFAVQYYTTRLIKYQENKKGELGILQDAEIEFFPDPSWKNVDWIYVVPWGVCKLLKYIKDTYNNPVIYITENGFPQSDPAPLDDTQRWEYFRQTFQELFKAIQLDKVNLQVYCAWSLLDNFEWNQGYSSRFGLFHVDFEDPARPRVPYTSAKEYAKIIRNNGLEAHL
Description: Inhibition of beta-Glucosidase at 1 umol/mL.

Experiment [2] addresses T2, Alpha-glucosidase (Apis mellifera) (UniProt Q17058).
T2 sequence (whole entry): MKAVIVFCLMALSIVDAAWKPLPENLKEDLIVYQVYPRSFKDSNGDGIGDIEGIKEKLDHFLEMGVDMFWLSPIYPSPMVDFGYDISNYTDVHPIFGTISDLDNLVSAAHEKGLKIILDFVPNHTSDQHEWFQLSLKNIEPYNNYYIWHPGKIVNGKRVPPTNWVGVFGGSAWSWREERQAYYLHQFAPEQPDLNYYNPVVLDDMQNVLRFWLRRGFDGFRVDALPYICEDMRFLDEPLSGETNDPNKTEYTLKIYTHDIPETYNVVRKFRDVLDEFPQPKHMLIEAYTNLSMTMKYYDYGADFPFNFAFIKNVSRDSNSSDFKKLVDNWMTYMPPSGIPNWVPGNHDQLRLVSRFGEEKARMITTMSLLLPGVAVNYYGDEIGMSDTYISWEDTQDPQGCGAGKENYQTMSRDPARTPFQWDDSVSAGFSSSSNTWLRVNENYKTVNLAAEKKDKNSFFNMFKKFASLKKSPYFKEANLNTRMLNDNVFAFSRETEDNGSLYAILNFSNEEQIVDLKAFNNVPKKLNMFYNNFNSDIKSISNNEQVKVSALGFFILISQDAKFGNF
As to the kind of experiment: Inhibition of family 13 alpha-glucosidase isoform II from honey bee. The note with it: concentration not given here.

Experiment [3] deals with T2, Alpha-glucosidase (Apis mellifera). Description: Inhibition of family 13 alpha-glucosidase isoform I from honey bee. The note with it: concentration not given here.
The target of another experiment is T3, Alpha-glucosidase (Apis mellifera, UniProt Q17058).
T3 sequence (Q17058 whole entry): T2 sequence (whole entry)
As to the kind of experiment: Inhibition of family 13 alpha-glucosidase isoform I from honey bee at 1 umol/mL.

Experiment [4] in a line: Competitive Inhibition constant for Bacillus stearothermophilus glucosidase. Set-up: species or system Geobacillus stearothermophilus.
Experiment [5] is described as follows: Inhibitory concentration of Bacillus stearothermophilus glucosidase (of family 13 alpha-glucosidase) at 1 umol/mL. More on the design: species or system Geobacillus stearothermophilus.

The term inhibition denotes the change of the read-out against control, counted positive when it falls. A lower inhibition goes with little suppression. On to `O=C(NCC1OC(CO)C(O)C(O)C1O)c1ccccc1` (stereo unspecified), for which the inhibition in experiment [1] was less than 1%; in experiment [2] it was 12.3%.
Regarding `O=C(CCCO)NCC1OC(CO)C(O)C(O)C1O` (stereo unspecified), the inhibition in experiment [3] is less than 1%.
For orientation: IC50 means the concentration at which inhibition is half-maximal. A higher IC50 goes with weaker potency. At Alpha-glucosidase, `O=C(CO)NCC1OC(CO)C(O)C(O)C1O` (stereo unspecified) yielded an IC50 of 851 µM.
The Ki is a dissociation constant, usually derived from enzyme kinetics or from competition with a known ligand. The low end stands for a stronger hold on the target, the high end for a looser hold on the target. Consider `O=C(CCCCO)NCC1OC(CO)C(O)C(O)C1O` (stereo unspecified), for which the affinity in experiment [4], expressed as Ki, was 580 µM. This molecule returned a concentration for half-maximal inhibition (IC50) in experiment [5] of 415 µM.
